# Data: patent EP4786472A1, “BRD4 PROTEIN DEGRADATION AGENT COMPOUND, AND PREPARATION METHOD AND USE THEREFOR” (Miracure Biotechnology Limited, priority 2023, dated 2025)
# Like-named read-outs stand apart in the source and are kept apart here.
# What was measured:
# Format in all cases: cell-based
# [1] = target: BRD4 (Homo sapiens, UniProt O60885); test: BRD4 degradation assay (Western-blot / Simple Western) in 22RV1 cells; details: for activity at 0.2 µM: 22Rv1, 5 h, read-out: BRD4 degradation of 22RV1 (200 nM 5 h)
# [2] = system: 22RV1; test: Cell proliferation assay (CellTiterGlo); details: 22RV1 cells, 72 h compound treatment, CellTiterGlo cell viability, read-out: 22Rv1 ATP average IC50
# Description: (§1) Test Example 1. Cell Proliferation Assay
# (§2) The cell line used was 22RV1 or LNCaP, and the medium was RPMI-1640 containing 10% FBS and antibiotics. All incubations were performed at 37 °C in a humidified carbon dioxide incubator.
# (§3) On day 1, cells were digested with 0.25% trypsin (containing EDTA) and collected by centrifugation. The cells were seeded in a 96-well plate (white wall/transparent bottom) at 5000 cells/well and cultured overnight.
# (§4) On day 2, A stock solution of the compound at a concentration of 10 mM was subjected to an 8-fold serial dilution to obtain 8 concentration points. 2 µL of the compound solution at each concentration point was added to 98 µL of fresh medium, and the mixture was mixed homogeneously. Then, 5 µL of the compound solution diluted in the medium at each concentration point was added to 100 µL of overnight medium containing the cells, and 2 replicates were set for each concentration. The mixture was cultured for 72 h.
# (§5) After 72 h of compound treatment, the plate was equilibrated to room temperature, 100 µL of CellTiterGlo (Promega) was added. The mixture was mixed homogeneously for 2 min, left to stand at room temperature for 10 min, and then read for luminescence values on a SpectraMax M5 microplate reader to evaluate cell viability. The positive control was 1% Tween-20 and the negative control was 0.1% DMSO. IC50 was generated by 4-parameter non-linear regression fitting in GraphPad Prism.
# [3] = system: LNCaP; test: Cell proliferation assay (CellTiterGlo); details: LNCaP cells, 72 h compound treatment, CellTiterGlo cell viability, read-out: LNCap ATP average IC50
# Description: as §1, §2, §3, §4, §5
Structure (SMILES),activity at 0.2 µM [1] [%],IC50 ([2]; Homo sapiens) [µM],IC50 ([3]; Homo sapiens) [µM],"BRD4 degradation of 22RV1 (200 nM 5 h) ([1]; 22RV1 cells, 200 nM, 5 h, target content as percentage of control (DMSO = 100%))",IC50 [2] [µM],IC50 [3] [µM]
CC#CC(=O)Nc1ccc(C2=N[C@@H](CC(=O)OC(C)(C)C)c3nnc(C)n3-c3sc(C)c(C)c32)cc1 [compound 9259],20 to 50,< 0.05,< 0.05,–,–,–
CC#CC(=O)Nc1ccc(C2=N[C@@H](Cc3nccs3)c3nnc(C)n3-c3sc(C)c(C)c32)cc1 [compound 9253],50 to 80,< 0.05,< 0.05,–,–,–
Cc1sc2c(c1C)C(c1ccc(NC(=O)CCl)cc1)=N[C@@H](Cc1nccs1)c1nnc(C)n1-2 [compound 9250],80 to 100,< 0.05,< 0.05,–,–,–
C=CC(=O)Nc1ccc(C2=N[C@@H](CC(=O)OC(C)(C)C)c3nnc(C)n3-c3sc(C)c(C)c32)cc1 [compound 9230],< 20,< 0.05,< 0.05,–,–,–
C#CC(=O)Nc1ccc(C2=N[C@@H](CC(=O)OC(C)(C)C)c3nnc(C)n3-c3sc(C)c(C)c32)cc1 [compound 9260],< 20,< 0.05,< 0.05,–,–,–
C=CS(=O)(=O)Nc1ccc(C2=N[C@@H](CC(=O)OC(C)(C)C)c3nnc(C)n3-c3sc(C)c(C)c32)cc1 [compound 9231],< 20,0.05 to 0.2,< 0.05,–,–,–
"Cc1sc2c(c1C)C(c1ccc(C#CCN)cc1)=N[C@@H](CC(=O)OC(C)(C)C)c1nnc(C)n1-2 [GNE-0011, reference compound]",–,–,–,B (20% < B <50%),< 0.05,< 0.05
